Entries after “also recorded” stand apart in the source; their conditions may differ.
Columns and labels:
aged rats = test: performance of a stabilized delayed alternation task at three retention delays in aged rats; assay type: in vivo, rat; set-up: dose or concentration left out as unconfirmed; settings: 15, 30 or 60 modafinil
Procedure: In another study, aged rats were tested for performance of a stabilized delayed alternation task at three retention delays. After stabilized performance in training sessions the rats were entered into a drug testing study with […] of modafinil. A trial started with the presentation of a single lever (left or right). […] After the expiration of the delay, the 2 levers were inserted into the chamber and the animal received a food pellet only if it pressed the lever not previously presented (delayed alternation). Incorrect responses (responses on the same lever) were not reinforced. The 3 delays were randomly presented and equally distributed throughout the session. Correct or incorrect responses were followed by retraction of the two levers. […] The test results indicated the response accuracy of the animal after each retention delay, the simple reaction time in the one lever presentation, and the choice reaction time in the two lever presentation. […] Therefore, modafinil had no effect on improving short term memory at these doses.

aged male Wistar rats = settings: rat, in vivo
adult humans = test: wakefulness promoting dose extrapolated to adult humans; assay type: in vivo, human; settings: extrapolation in adult humans
Procedure: The dosage levels in rats in the studies described herein are reported in mg/kg administered by intraperitoneal injection (i.p.). As described in previous publications, the wakefulness promoting dose of modafinil in rats is highly significant at doses of 100 to 300 mg/kg i.p. (Edgar and Seidel, The Journal of Pharmacology and Experimental Therapeutics, vol. 283, pp 757-769, 1997). The extrapolation in adult humans is a wakefulness promoting dose of 200 mg/day. A dose of 200 mg to an adult human would result in a serum level of about 6.4 μg/ml. […] An effective dose, therefore, is a dose given as a single unit per day in a sustained release formula or given periodically would be that dose that maintains a serum level of from about 0.05 to about 2 μg/ml.

[1] = dose of 200 mg to an adult human; cited from earlier work

With `NC(=O)C[S+]([O-])C(c1ccccc1)c1ccccc1` (centres unmarked) [Modafinil, 2-(benzhydrylsulfinyl) acetamide] the “effect on improving short term memory” value (aged rats) was “no effect”, the “number of correct responses at any retention delay” value (aged rats; retention delays 5, 10 or 20 seconds) was “did not significantly affect” and the choice reaction times (aged male Wistar rats) was “significantly decreased”. For the same compound, the “general ability of animals to perform the task” value (aged male Wistar rats) was “failed to improve”, the “number of correct responses” value (aged male Wistar rats) was “No effects” and the “number of correct responses (response accuracy)” value (aged male Wistar rats) was “significantly increased”. For the same compound, the “number of response omissions” value (aged male Wistar rats) was “significantly increased”, the simple reaction times (aged male Wistar rats) was “No clear effects; also recorded: tended to increase” and the “cognitive function in aged rats” value (aged male Wistar rats; 60 mg/kg) was “restored cognitive function in the aged rats to the level of the young control rats”. The wakefulness promoting dose (adult humans) was 200 mg/day and the serum level [1] was “about 6.4 μg/ml”.

Source: patent publication US20010034373A1, “Low dose modafinil for enhancement of cognitive function” (priority 2000, published 2001)
